We go through 7 compounds from US11541028B2, “Peptide pharmaceuticals for treatment of NASH and other disorders” (Mederis Diabetes LLC, priority 2018, dated 2023).

Read-outs that look alike come from different tables or passages of the source. Square brackets hold non-standard residues; d marks the D form. Peptide text beside a SMILES is read from it. * marks the point of attachment. βDGlcA(1-OC18H37) = CCCCCCCCCCCCCCCCCCO[C@@H]1O[C@H](C(=O)*)[C@@H](O)[C@H](O)[C@H]1O; Bip = N[C@@H](Cc1ccc(-c2ccccc2)cc1)C(=O)O; αMeF = C[C@](N)(Cc1ccccc1)C(=O)O; Aib = CC(C)(N)C(=O)O

One assay concerns the target T1, human glucagon receptor (Homo sapiens, UniProt P47871).
T1 construct: host or cells: CHO cells
Nature of the assay: DiscoveRx LeadHunter cellular assay, cAMP stimulation, glucagon receptor in CHO cells. It is filed as cell-based.

Another assay deals with T2, human GLP-1 receptor (Homo sapiens, UniProt P43220).
T2 construct: host or cells: CHO cells
Nature of the assay: DiscoveRx LeadHunter cellular assay, cAMP stimulation, GLP-1 receptor in CHO cells. To be noted: human GLP-1 receptor in CHO cells (DiscoveRx); read-out: EC50 cAMP GLP-1 R. It is filed as cell-based.

T2 sequence (P43220 24-463): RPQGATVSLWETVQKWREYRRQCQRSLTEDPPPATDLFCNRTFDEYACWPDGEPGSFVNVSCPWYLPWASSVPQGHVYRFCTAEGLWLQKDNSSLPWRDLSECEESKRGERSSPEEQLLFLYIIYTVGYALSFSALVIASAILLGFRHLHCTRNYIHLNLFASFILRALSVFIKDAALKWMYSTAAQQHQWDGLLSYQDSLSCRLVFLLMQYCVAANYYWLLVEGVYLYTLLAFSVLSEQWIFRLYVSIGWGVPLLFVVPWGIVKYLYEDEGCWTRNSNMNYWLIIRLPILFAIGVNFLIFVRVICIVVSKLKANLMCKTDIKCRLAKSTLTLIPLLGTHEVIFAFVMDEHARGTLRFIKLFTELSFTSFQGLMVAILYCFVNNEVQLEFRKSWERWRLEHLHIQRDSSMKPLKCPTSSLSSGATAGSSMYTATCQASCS
T1 sequence (P47871 26-477): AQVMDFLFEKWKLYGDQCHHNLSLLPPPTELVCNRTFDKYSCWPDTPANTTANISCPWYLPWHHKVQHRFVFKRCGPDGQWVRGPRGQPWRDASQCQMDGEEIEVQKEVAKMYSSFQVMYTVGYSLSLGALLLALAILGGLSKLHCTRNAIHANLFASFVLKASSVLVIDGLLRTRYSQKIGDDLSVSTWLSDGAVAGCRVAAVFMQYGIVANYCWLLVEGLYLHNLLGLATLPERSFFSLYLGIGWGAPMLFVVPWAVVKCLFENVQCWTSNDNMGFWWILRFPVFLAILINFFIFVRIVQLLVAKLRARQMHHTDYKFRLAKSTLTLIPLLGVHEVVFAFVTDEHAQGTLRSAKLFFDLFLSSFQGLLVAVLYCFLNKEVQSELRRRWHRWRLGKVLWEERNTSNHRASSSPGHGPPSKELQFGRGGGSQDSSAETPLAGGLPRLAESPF
Experimental for human GLP-1 receptor: (§1) A further series of cellular assays was carried out with standard cellular assays (DiscoveRx, LeadHunter assays) using readout of cAMP stimulation or arrestin activation. Compounds were weighed precisely in an amount of about 1 mg and shipped to DiscoveRx for dilution and assay.
Experimental for human glucagon receptor: as §1

As a reminder, the EC50 is the midpoint of the concentration-response curve. Turning to `CCCCCCCCCCCCCCCCCCO[C@@H]1O[C@H](C(=O)NCCCC[C@H](NC(=O)[C@H](Cc2ccc(-c3ccccc3)cc2)NC(=O)[C@H](CC(=O)O)NC(=O)[C@H](CO)NC(=O)[C@@H](NC(=O)[C@](C)(Cc2ccccc2)NC(=O)[C@@H](NC(=O)CNC(=O)[C@H](CCC(N)=O)NC(=O)C(C)(C)NC(=O)[C@@H](N)Cc2c[nH]cn2)[C@@H](C)O)[C@@H](C)O)C(N)=O)[C@@H](O)[C@H](O)[C@H]1O` [EU-A757] (H-H[Aib]QGT[αMeF]TSD[Bip]K(βDGlcA(1-OC18H37))-NH2; N-terminus assumed), the EC50 at human glucagon receptor (read-out: EC50 cAMP Glucagon R, human glucagon receptor in CHO cells (DiscoveRx)) was over 1000 nM.
Turning to `CCCCCCCCCCCCCCCCCCO[C@@H]1O[C@H](C(=O)NCCCC[C@H](NC(=O)[C@@H](NC(=O)[C@H](Cc2ccccc2)NC(=O)[C@H](CCC(=O)O)NC(=O)[C@@H]2CCCCNC(=O)CC[C@H](NC(=O)[C@H](CC(=O)O)NC(=O)[C@H](CC(C)C)NC(=O)[C@H](Cc3ccc(O)cc3)NC(=O)[C@H](CCCCN)NC(=O)[C@H](CO)NC(=O)[C@H](Cc3ccc(O)cc3)NC(=O)[C@H](CC(=O)O)NC(=O)[C@H](CO)NC(=O)[C@@H](NC(=O)[C@H](Cc3ccccc3)NC(=O)[C@@H](NC(=O)CNC(=O)[C@H](CCC(N)=O)NC(=O)C(C)(C)NC(=O)[C@@H](N)Cc3c[nH]cn3)[C@@H](C)O)[C@@H](C)O)C(=O)N[C@@H](CCC(N)=O)C(=O)N[C@@H](C)C(=O)N[C@@H](C)C(=O)N2)[C@@H](C)CC)C(=O)N[C@@H](Cc2c[nH]c3ccccc23)C(=O)N[C@@H](CC(C)C)C(=O)N[C@@H](CC(C)C)C(=O)N[C@@H](CCC(N)=O)C(=O)N[C@H](C(N)=O)[C@@H](C)O)[C@@H](O)[C@H](O)[C@H]1O` [EU-A996], on human GLP-1 receptor, the EC50 amounted to 0.05 nM.
The same measure, in the same setting: to `CCCCCCCCCCCCO[C@@H]1O[C@H](C(=O)O)[C@@H](O[C@H]2O[C@H](C(=O)NCCCC[C@H](NC(=O)[C@@H](NC(=O)[C@H](Cc3ccccc3)NC(=O)[C@H](CCC(=O)O)NC(=O)[C@@H]3CCCCNC(=O)CC[C@H](NC(=O)[C@H](CC(=O)O)NC(=O)[C@H](CC(C)C)NC(=O)[C@H](Cc4ccc(O)cc4)NC(=O)[C@H](CCCCN)NC(=O)[C@H](CO)NC(=O)[C@H](Cc4ccc(O)cc4)NC(=O)[C@H](CC(=O)O)NC(=O)[C@H](CO)NC(=O)[C@@H](NC(=O)[C@H](Cc4ccccc4)NC(=O)[C@@H](NC(=O)CNC(=O)[C@H](CCC(N)=O)NC(=O)C(C)(C)NC(=O)[C@@H](N)Cc4c[nH]cn4)[C@@H](C)O)[C@@H](C)O)C(=O)N[C@@H](CCC(N)=O)C(=O)N[C@@H](C)C(=O)N[C@@H](C)C(=O)N3)[C@@H](C)CC)C(=O)N[C@@H](Cc3c[nH]c4ccccc34)C(=O)N[C@@H](CC(C)C)C(=O)N[C@@H](CC(C)C)C(=O)N[C@@H](CCC(N)=O)C(=O)N[C@H](C(N)=O)[C@@H](C)O)[C@@H](O)[C@H](O)[C@H]2O)[C@H](O)[C@H]1O` [EU-A999] belongs 0.05 nM.
For the compound `CCCCCCCCCCCCCCCCO[C@@H]1O[C@H](CO[C@H]2O[C@H](C(=O)NCCCC[C@H](NC(=O)[C@@H](NC(=O)[C@H](Cc3ccccc3)NC(=O)[C@H](CCC(=O)O)NC(=O)[C@@H]3CCCCNC(=O)CC[C@H](NC(=O)[C@H](CC(=O)O)NC(=O)[C@H](CC(C)C)NC(=O)[C@H](Cc4ccc(O)cc4)NC(=O)[C@H](CCCCN)NC(=O)[C@H](CO)NC(=O)[C@H](Cc4ccc(O)cc4)NC(=O)[C@H](CC(=O)O)NC(=O)[C@H](CO)NC(=O)[C@@H](NC(=O)[C@H](Cc4ccccc4)NC(=O)[C@@H](NC(=O)CNC(=O)[C@H](CCC(N)=O)NC(=O)C(C)(C)NC(=O)[C@@H](N)Cc4c[nH]cn4)[C@@H](C)O)[C@@H](C)O)C(=O)N[C@@H](CCC(N)=O)C(=O)N[C@@H](C)C(=O)N[C@@H](C)C(=O)N3)[C@@H](C)CC)C(=O)N[C@@H](Cc3c[nH]c4ccccc34)C(=O)N[C@@H](CC(C)C)C(=O)N[C@@H](CC(C)C)C(=O)N[C@@H](CCC(N)=O)C(=O)N[C@H](C(N)=O)[C@@H](C)O)[C@H](O)[C@H](O)[C@H]2O)[C@@H](O)[C@H](O)[C@H]1O` [EU-A1025], the EC50 on human glucagon receptor stood at 0.24 nM; at human GLP-1 receptor, 0.008 nM.
Take `CCCCCCCCCCCCCCCCO[C@H]1O[C@H](CO[C@H]2O[C@H](C(=O)NCCCC[C@H](NC(=O)[C@@H](NC(=O)[C@H](Cc3ccccc3)NC(=O)[C@H](CCC(=O)O)NC(=O)[C@@H]3CCCCNC(=O)CC[C@H](NC(=O)[C@H](CC(=O)O)NC(=O)[C@H](CC(C)C)NC(=O)[C@H](Cc4ccc(O)cc4)NC(=O)[C@H](CCCCN)NC(=O)[C@H](CO)NC(=O)[C@H](Cc4ccc(O)cc4)NC(=O)[C@H](CC(=O)O)NC(=O)[C@H](CO)NC(=O)[C@@H](NC(=O)[C@H](Cc4ccccc4)NC(=O)[C@@H](NC(=O)CNC(=O)[C@H](CCC(N)=O)NC(=O)C(C)(C)NC(=O)[C@@H](N)Cc4c[nH]cn4)[C@@H](C)O)[C@@H](C)O)C(=O)N[C@@H](CCC(N)=O)C(=O)N[C@@H](C)C(=O)N[C@@H](C)C(=O)N3)[C@@H](C)CC)C(=O)N[C@@H](Cc3c[nH]c4ccccc34)C(=O)N[C@@H](CC(C)C)C(=O)N[C@@H](CC(C)C)C(=O)N[C@@H](CCC(N)=O)C(=O)N[C@H](C(N)=O)[C@@H](C)O)[C@H](O)[C@H](O)[C@H]2O)[C@@H](O)[C@H](O)[C@H]1O` [EU-A1173]: the EC50 came out at 0.463 nM at human glucagon receptor and 0.021 nM at human GLP-1 receptor.
In the same order, the values of `CCCCCCCCCCCCO[C@@H]1O[C@H](CO[C@H]2O[C@H](C(=O)NCCCC[C@H](NC(=O)[C@@H](NC(=O)[C@H](Cc3ccccc3)NC(=O)[C@H](CCC(=O)O)NC(=O)[C@@H]3CCCCNC(=O)CC[C@H](NC(=O)[C@H](CC(=O)O)NC(=O)[C@H](CC(C)C)NC(=O)[C@H](Cc4ccc(O)cc4)NC(=O)[C@H](CCCCN)NC(=O)[C@H](CO)NC(=O)[C@H](Cc4ccc(O)cc4)NC(=O)[C@H](CC(=O)O)NC(=O)[C@H](CO)NC(=O)[C@@H](NC(=O)[C@H](Cc4ccccc4)NC(=O)[C@@H](NC(=O)CNC(=O)[C@H](CCC(N)=O)NC(=O)C(C)(C)NC(=O)[C@@H](N)Cc4c[nH]cn4)[C@@H](C)O)[C@@H](C)O)C(=O)N[C@@H](CCC(N)=O)C(=O)N[C@@H](C)C(=O)N[C@@H](C)C(=O)N3)[C@@H](C)CC)C(=O)N[C@@H](Cc3c[nH]c4ccccc34)C(=O)N[C@@H](CC(C)C)C(=O)N[C@@H](CC(C)C)C(=O)N[C@@H](CCC(N)=O)C(=O)N[C@H](C(=O)O)[C@@H](C)O)[C@H](O)[C@H](O)[C@H]2O)[C@@H](O)[C@H](O)[C@H]1O` [EU-A1576] are 0.07 nM and 0.032 nM.
Take `CCCCCCCCCCCCCCO[C@@H]1O[C@H](CO[C@H]2O[C@H](C(=O)NCCCC[C@H](NC(=O)[C@@H](NC(=O)[C@H](Cc3ccccc3)NC(=O)[C@H](CCC(=O)O)NC(=O)[C@@H]3CCCCNC(=O)CC[C@H](NC(=O)[C@H](CC(=O)O)NC(=O)[C@H](CC(C)C)NC(=O)[C@H](Cc4ccc(O)cc4)NC(=O)[C@H](CCCCN)NC(=O)[C@H](CO)NC(=O)[C@H](Cc4ccc(O)cc4)NC(=O)[C@H](CC(=O)O)NC(=O)[C@H](CO)NC(=O)[C@@H](NC(=O)[C@H](Cc4ccccc4)NC(=O)[C@@H](NC(=O)CNC(=O)[C@H](CCC(N)=O)NC(=O)C(C)(C)NC(=O)[C@@H](N)Cc4c[nH]cn4)[C@@H](C)O)[C@@H](C)O)C(=O)N[C@@H](CCC(N)=O)C(=O)N[C@@H](C)C(=O)N[C@@H](C)C(=O)N3)[C@@H](C)CC)C(=O)N[C@@H](Cc3c[nH]c4ccccc34)C(=O)N[C@@H](CC(C)C)C(=O)N[C@@H](CC(C)C)C(=O)N[C@@H](CCC(N)=O)C(=O)N[C@H](C(=O)O)[C@@H](C)O)[C@H](O)[C@H](O)[C@H]2O)[C@@H](O)[C@H](O)[C@H]1O` [EU-A1577]: the EC50 was 0.069 nM at human glucagon receptor and 0.007 nM at human GLP-1 receptor.
